Test results reported in article PMC11491488 (Scientific Reports, 2024).

How the values were obtained:
[1] = tested on: gram-negative Pseudomonas aeruginosa (P. aeruginosa); assay: MIC assay, percentage growth inhibition, serial dilution in 96-well plates; format: cell-based; conditions: for inhibition of bacterial cells: at higher concentrations
[2] = tested on: gram-positive Staphylococcus aureus (S. aureus); assay: as above; format: cell-based; conditions: for inhibition of bacterial cells: at higher concentrations

Structure (SMILES): O=C(O)c1cn(C2CC2)c2cc(N3CCNCC3)c(F)cc2c1=O [CIPRO, ciprofloxacin]
- percent of P. aeruginosa killed ([1]; 4 µg/mL): 100.67 ± 0.39%
- inhibition of bacterial cells [1]: 90%
- percent of S. aureus killed ([2]; 12 µg/mL): 98.30 ± 0.26%
- inhibition of bacterial cells [2]: 90%

Structure (SMILES): C[C@H]1COc2c(N3CCN(C)CC3)c(F)cc3c(=O)c(C(=O)O)cn1c23 [LEVO, levofloxacin]
- inhibition of bacterial cells [1]: 90%
- inhibition of bacterial cells [2]: 90%

Structure (SMILES): CCn1cc(C(=O)O)c(=O)c2cc(F)c(N3CCNCC3)cc21 [NOR, norfloxacin]
- inhibition at 40 µg/mL ([1]; Pseudomonas aeruginosa, read-out: inhibitory effect against P. aeruginosa): 100.4 ± 0.17%
- inhibition of bacterial cells [1]: 90%
- inhibition at 128 µg/mL ([2]; Staphylococcus aureus, read-out: inhibitory effect against S. aureus): 97.9 ± 0.38%
- inhibition of bacterial cells [2]: 90%
